Assay results from PubChem BioAssay (NCI).
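Protocol summary: plate cells (96-well), add compound at 5 concentrations, incubate 48 h, interpolate endpoints linearly. GI50 is the concentration that inhibits growth by half. TGI is the concentration that stops growth completely.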

Columns and labels:
Assay in all cases: DTP human tumour cell line panel, 48 h
[1] = system: SN12C renal
[2] = system: U251 CNS
[3] = system: RPMI-8226 leukemia
[4] = system: CCRF-CEM leukemia
[5] = system: SR leukemia
[6] = system: TK-10 renal
[7] = system: SF-268 CNS
[8] = system: A498 renal
[9] = system: MDA-MB-231 breast
[10] = system: T-47D breast

| SMILES | TGI [1] [µM] | TGI [2] [µM] | TGI [3] [µM] | TGI [4] [µM] | TGI [5] [µM] | TGI [6] [µM] | TGI [7] [µM] | GI50 [1] [µM] | GI50 [2] [µM] | GI50 [3] [µM] | GI50 [8] [µM] | TGI [8] [µM] | GI50 [6] [µM] | GI50 [7] [µM] | GI50 [9] [µM] | TGI [9] [µM] | GI50 [4] [µM] | GI50 [10] [µM] | TGI [10] [µM] |
| --- | --- | --- | --- | --- | --- | --- | --- | --- | --- | --- | --- | --- | --- | --- | --- | --- | --- | --- | --- |
| Brc1cccc(C2SCc3nc4ccccc4n32)c1 (stereo not given) | 33.2 | 36.3 | > 100 | > 100 | 57.7 | 65.1 | > 100 | – | – | – | – | – | – | – | – | – | – | – | – |
| COc1ccc(C2CC(c3cc(OC)c(OC)c(OC)c3)=NN2C(C)=O)cc1OCC(=O)Nc1nc2ccc(C(F)(F)F)cc2s1 (stereo not given) | > 100 | 9.9 | 7.09 | – | – | 7.77 | 29.5 | 3.31 | 3.08 | 2.21 | 2.78 | 9.7 | 2.85 | 3.84 | 3.11 | 8.96 | – | – | – |
| CCOC(=O)c1oc2ccc(OC)c3c2c1CCC3 | > 100 | > 100 | > 100 | > 100 | > 100 | > 100 | > 100 | – | – | – | – | > 100 | – | – | – | – | – | – | – |
| O=C1OC(CCCl)(c2ccccc2)CC1CN1CCOCC1 (stereo not given) | 90.7 | > 100 | 27.9 | 41.6 | – | 30.5 | > 100 | – | – | – | – | > 100 | – | – | – | – | – | – | – |
| c1ccc2c(c1)c(NCCCCN1CCCCC1)cc1c3ccccc3c(NCCCCN3CCCCC3)cc21 | 35.4 | 29.8 | 74.5 | > 100 | – | 48.9 | 32.1 | 17.2 | 7.67 | 3.85 | 13.6 | 32.9 | 22.1 | 14.1 | 17.2 | 35.7 | 13.4 | – | – |
| O=S(=O)(c1ccccc1)C(CN1CCCCC1)S(=O)(=O)c1ccccc1 | > 100 | > 100 | > 100 | > 100 | > 100 | > 100 | > 100 | – | – | – | – | – | – | – | – | – | – | – | – |
| CCCCCCCCCCCC(=O)OCCOCCOCCOCCOCCOCc1ccc(OC)cc1 | > 100 | > 100 | > 100 | > 100 | > 100 | > 100 | > 100 | – | – | – | – | > 100 | – | – | – | – | – | – | – |
| C[Si](C)(C)OC1(C#N)C2C3CC4C2C(=O)C2C4C3C21 (stereo not given) | > 100 | > 100 | > 100 | > 100 | > 100 | > 100 | > 100 | – | – | – | – | > 100 | – | – | – | – | – | – | – |
| Cn1cnc2nc(Cl)nc(NC(C)(C)C(C)(C)O)c21 | > 100 | > 100 | > 100 | > 100 | > 100 | > 100 | > 100 | – | – | – | – | > 100 | – | – | – | – | – | – | – |
| COc1cc2c(cc1OCCCCOc1cc3c(cc1OC)C(=O)N1CCC[C@H]1CN3)N=C[C@@H]1CCCN1C2=O | 18.2 | > 100 | 4.84 | – | – | 8.38 | 4.95 | 2.29 | 0.392 | 0.575 | – | – | 1.64 | 0.344 | 1.05 | 5.26 | 0.243 | 0.512 | > 100 |
| COc1cc2c(cc1OC(=O)CC(C)O)C1C(OC2=O)C(OC(C)=O)C=C2CCN(C)[C@H]21 (stereo not given in full) | > 100 | 61.4 | – | > 100 | > 100 | 65.1 | > 100 | – | – | – | – | 45.5 | – | – | – | – | – | – | – |
